pIC50: −log10 of the molar value.
What was measured:
[1] = tested on: NA activity of different viral strains; conditions: read-out: IC50 on NA activity of different viral strains; ref Hata et al. (2008); cited from earlier work
human Neu3 = conditions: read-out: IC50 on human Neu3; recombinant; ref Hata et al. (2008); cited from earlier work
[2] = tested on: native non-human primate brain NA activity (microsomal and membrane fractions); test: NA inhibition assay, non-human primate brain extracts; format: biochemical, Macaca fascicularis
[3] = tested on: panel of 155 molecular targets unrelated to NAs; test: Selectivity panel of 155 molecular targets unrelated to NAs; conditions: for pharmacological activity on panel targets: 3 and 30 μM, 50% cut-off for relevance; for low levels of activity, inhibition/stimulation, on eleven targets: at either 3 μM or 30 μM
[4] = Steady-state exposure in adults, standard regimen; format: in vivo, human; conditions: 75 mg twice daily for 5 days
[5] = tested on: NA activity in rat brain tissue; test: NA inhibition assay, rat brain-derived tissue; format: biochemical; conditions: concentrations up to 1 mM
human Neu2 = conditions: read-out: IC50 on human Neu2; recombinant; ref Hata et al. (2008); cited from earlier work
human Neu1 = conditions: read-out: IC50 on human Neu1; recombinant; ref Hata et al. (2008); cited from earlier work
[6] = tested on: Gαi- and Gαs-linked G protein-coupled receptors in whole rat brain membranes; conditions: ref Satoh et al. (2007); cited from earlier work
recombinant human Neu4 = molecular target: T1, recombinant human Neu4 (Homo sapiens, UniProt Q8WWR8); test: NA inhibition assay, recombinant human Neu4; format: biochemical
T1 sequence (Q8WWR8 1-484): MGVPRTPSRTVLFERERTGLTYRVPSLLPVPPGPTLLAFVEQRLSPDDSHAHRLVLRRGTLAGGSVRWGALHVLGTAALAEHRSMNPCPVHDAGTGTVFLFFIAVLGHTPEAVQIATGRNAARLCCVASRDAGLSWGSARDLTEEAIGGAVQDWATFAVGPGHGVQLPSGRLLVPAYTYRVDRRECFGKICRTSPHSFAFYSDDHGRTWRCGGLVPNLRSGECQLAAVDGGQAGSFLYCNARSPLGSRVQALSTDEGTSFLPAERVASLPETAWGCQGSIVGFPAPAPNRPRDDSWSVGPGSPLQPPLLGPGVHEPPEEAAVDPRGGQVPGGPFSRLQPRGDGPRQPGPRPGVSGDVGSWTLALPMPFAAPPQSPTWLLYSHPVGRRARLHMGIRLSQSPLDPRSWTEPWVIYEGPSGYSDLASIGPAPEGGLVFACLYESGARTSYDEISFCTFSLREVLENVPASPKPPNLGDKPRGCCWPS

recombinant human NAs = conditions: concentrations up to 1 mM; ref Hata et al. (2008); cited from earlier work
recombinant human Neu2 = recombinant human Neu2 (Homo sapiens, UniProt Q9Y3R4); test: NA inhibition assay, recombinant human Neu2; format: biochemical
Sequence of recombinant human Neu2 (Q9Y3R4 whole entry): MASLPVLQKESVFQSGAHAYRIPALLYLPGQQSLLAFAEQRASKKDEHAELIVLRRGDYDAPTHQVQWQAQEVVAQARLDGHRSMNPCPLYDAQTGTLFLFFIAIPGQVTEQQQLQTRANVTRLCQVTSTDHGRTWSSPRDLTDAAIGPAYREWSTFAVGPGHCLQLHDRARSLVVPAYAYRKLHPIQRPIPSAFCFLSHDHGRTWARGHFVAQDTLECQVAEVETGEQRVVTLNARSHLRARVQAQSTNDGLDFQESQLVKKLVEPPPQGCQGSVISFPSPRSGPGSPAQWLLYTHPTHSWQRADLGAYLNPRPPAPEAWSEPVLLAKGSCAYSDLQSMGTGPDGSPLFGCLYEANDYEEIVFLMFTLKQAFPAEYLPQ

[7] = molecular target: recombinant α1β2γ2 GABAA receptor (Homo sapiens, UniProt P14867+P18507+P47870); test: Electrophysiological GABAA patch-clamp assay; format: cell-based
Sequence of recombinant α1β2γ2 GABAA receptor (P14867 28-456): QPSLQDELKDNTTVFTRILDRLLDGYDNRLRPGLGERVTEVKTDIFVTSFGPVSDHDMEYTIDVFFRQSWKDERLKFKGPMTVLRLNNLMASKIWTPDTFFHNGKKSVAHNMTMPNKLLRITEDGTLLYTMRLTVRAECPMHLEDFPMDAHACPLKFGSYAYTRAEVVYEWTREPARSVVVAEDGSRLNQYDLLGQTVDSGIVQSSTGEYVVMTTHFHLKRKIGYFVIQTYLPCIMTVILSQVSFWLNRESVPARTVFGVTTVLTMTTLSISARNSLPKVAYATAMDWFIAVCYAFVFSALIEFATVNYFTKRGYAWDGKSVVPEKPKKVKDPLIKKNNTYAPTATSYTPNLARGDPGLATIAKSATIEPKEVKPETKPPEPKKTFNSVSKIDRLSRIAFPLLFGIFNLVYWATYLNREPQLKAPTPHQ
Sequence of recombinant α1β2γ2 GABAA receptor (P47870 25-512 limits assumed): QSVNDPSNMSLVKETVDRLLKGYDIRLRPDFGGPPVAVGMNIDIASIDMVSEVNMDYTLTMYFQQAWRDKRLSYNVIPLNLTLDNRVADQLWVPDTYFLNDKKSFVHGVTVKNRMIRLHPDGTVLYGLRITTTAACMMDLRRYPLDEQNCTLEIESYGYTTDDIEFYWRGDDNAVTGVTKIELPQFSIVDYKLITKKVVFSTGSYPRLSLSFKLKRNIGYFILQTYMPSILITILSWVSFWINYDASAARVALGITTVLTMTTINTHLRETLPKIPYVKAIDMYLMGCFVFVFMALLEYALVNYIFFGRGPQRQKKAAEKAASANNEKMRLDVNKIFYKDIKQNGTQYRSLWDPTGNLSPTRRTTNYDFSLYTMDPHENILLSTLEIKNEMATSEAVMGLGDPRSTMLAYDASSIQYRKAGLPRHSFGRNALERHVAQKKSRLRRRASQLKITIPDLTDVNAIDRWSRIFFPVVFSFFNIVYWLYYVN
Sequence of recombinant α1β2γ2 GABAA receptor (P18507 40-475): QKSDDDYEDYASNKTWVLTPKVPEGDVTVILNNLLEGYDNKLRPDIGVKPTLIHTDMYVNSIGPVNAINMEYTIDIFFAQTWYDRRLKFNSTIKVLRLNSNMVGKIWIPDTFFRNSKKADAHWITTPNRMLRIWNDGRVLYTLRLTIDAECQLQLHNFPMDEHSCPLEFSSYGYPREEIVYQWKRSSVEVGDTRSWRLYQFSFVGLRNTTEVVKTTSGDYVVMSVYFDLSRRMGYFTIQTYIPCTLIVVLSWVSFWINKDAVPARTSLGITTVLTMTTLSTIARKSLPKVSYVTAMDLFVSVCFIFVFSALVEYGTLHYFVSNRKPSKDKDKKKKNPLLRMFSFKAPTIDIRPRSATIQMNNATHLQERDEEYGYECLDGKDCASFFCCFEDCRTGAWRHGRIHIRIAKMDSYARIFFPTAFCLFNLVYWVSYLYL

human Neu4 = conditions: read-out: IC50 on human Neu4; recombinant; ref Hata et al. (2008); cited from earlier work
[8] = tested on: recombinant human NAs Neu1–4; test: NA inhibition assay, all 4 recombinant human NAs; format: biochemical; conditions: for partial inhibition of all 4 human NAs: concentrations higher than 1 mM; for inhibition of all 4 human NAs: up to a concentration of 1 mM
recombinant human Neu3 = molecular target: T2, recombinant human Neu3 (Homo sapiens, UniProt Q9UQ49); test: NA inhibition assay, recombinant human Neu3; format: biochemical
T2 sequence (Q9UQ49 1-428): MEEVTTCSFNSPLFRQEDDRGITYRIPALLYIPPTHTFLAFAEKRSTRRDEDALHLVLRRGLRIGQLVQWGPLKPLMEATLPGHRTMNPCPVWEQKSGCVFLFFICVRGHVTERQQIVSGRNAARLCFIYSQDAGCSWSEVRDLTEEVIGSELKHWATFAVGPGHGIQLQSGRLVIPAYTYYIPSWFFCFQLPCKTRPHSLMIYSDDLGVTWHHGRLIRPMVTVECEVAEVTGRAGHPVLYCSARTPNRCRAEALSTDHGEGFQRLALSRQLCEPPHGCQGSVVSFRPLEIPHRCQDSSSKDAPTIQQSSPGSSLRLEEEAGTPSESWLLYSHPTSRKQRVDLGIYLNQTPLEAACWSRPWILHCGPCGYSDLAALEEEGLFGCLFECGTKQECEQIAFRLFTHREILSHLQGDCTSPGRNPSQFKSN

recombinant human Neu1 = recombinant human Neu1 (Homo sapiens, UniProt Q99519); test: NA inhibition assay, recombinant human Neu1; format: biochemical
[9] = molecular target: recombinant influenza virus NA (Influenza A virus, UniProt Q30NP8); test: NA inhibition assay, recombinant influenza virus NA; format: biochemical, influenza strain A/Beijing/39/1975 H3N2
Sequence of recombinant influenza virus NA (Q30NP8 whole entry, looked up): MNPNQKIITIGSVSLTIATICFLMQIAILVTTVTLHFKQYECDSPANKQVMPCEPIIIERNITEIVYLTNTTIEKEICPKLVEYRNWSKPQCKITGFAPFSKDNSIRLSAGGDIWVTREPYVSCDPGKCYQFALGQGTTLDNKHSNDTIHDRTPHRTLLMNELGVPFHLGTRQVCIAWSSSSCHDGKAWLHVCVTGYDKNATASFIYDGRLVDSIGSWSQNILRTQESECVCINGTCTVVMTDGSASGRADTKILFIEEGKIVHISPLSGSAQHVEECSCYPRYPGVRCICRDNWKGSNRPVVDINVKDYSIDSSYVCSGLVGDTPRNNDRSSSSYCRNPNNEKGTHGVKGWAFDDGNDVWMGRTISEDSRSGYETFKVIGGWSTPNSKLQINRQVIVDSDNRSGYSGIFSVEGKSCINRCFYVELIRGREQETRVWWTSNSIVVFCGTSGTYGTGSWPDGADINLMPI

[10] = concentrations higher than 10 mM
[11] = microsomal and membrane fractions, concentrations up to 10 mM
[12] = concentrations higher than 2 mM
[13] = concentrations higher than 5 mM
[14] = concentrations higher than 1 mM

Structure (SMILES)	inhibition of non-human primate brain NA activity [2, 10]	inhibition of non-human primate brain NA activity [2, 11]	pharmacological activity on panel targets [3]	low levels of activity, inhibition/stimulation, on eleven targets [3]	extrapolated brain Cmax [4]	inhibition of NA activity in rat brain tissue [5]	effect on [35S]-GTP-γS binding [6]	inhibitory activity on Neu4 (recombinant human Neu4; [12])	inhibitory activity on Neu4 (recombinant human Neu4; concentrations up to 2 mM)	inhibitory activity on Neu2 (recombinant human Neu2; [13])	inhibitory activity on Neu2 (recombinant human Neu2; concentrations up to 5 mM)	activity on GABAA in patch-clamp, on GABA and pentobarbital [7]	partial inhibition of all 4 human NAs [8]	inhibition of all 4 human NAs [8]	inhibitory activity on Neu3 (recombinant human Neu3; [13])	inhibitory activity on Neu3 (recombinant human Neu3; concentrations up to 5 mM)	inhibitory activity on Neu1 (recombinant human Neu1; [14])	inhibitory activity on Neu1 (recombinant human Neu1; concentrations up to 1 mM)	further results
CCC(CC)O[C@@H]1C=C(C(=O)O)C[C@H](N)[C@H]1NC(C)=O [OC, oseltamivir carboxylate]	partial inhibition	no inhibition	no relevant pharmacological activity	20–27%	~ 77 nM	no inhibition	no effect	trend for an inhibitory activity	no inhibition	partial inhibition	no inhibition	lack of any significant, inhibitory, excitatory or modulatory activity	20–40%	no inhibition	partial inhibition	no inhibition	partial inhibition	no inhibitory activity	pIC50 [1]: 8.15 to 8.80; pIC50 (human Neu3): < 2.00; pIC50 (human Neu2): < 2.22; pIC50 (human Neu1): < 2.00; inhibitory activity on any of the human NAs (recombinant human NAs): no or negligible inhibitory activity; pIC50 (human Neu4): < 2.00
CCOC(=O)C1=C[C@@H](OC(CC)CC)[C@H](NC(C)=O)[C@@H](N)C1 [OP, oseltamivir phosphate]	partial inhibition	no inhibition	no relevant pharmacological activity	20–41%	~ 6.7 nM	no inhibition	no effect	trend for an inhibitory activity	no inhibition	partial inhibition	no inhibition	lack of any significant, inhibitory, excitatory or modulatory activity	20–40%	no inhibition	partial inhibition	no inhibition	partial inhibition	no inhibitory activity	pIC50 [9]: ~5.00
